System: Crude diglycosidase
Experiment: Examination of pH in the conversion into isoflavone aglycons by diglycosidase using soybean materials
Format: biochemical, Penicillium multicolor IAM7153
Set-up: Decomposition efficiency of genistin family in soymilk / Decomposition efficiency of genistin family in defatted soybean / Decomposition efficiency of daidzin family in defatted soybean: concentration or dose not given beside the values
How it was run: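 Each soybean material (50 mg) is suspended and set to a pH between 2 and 11. Crude diglycosidase, adjusted to 1.88 AU/mL in enzyme solution of the same pH, is added, and the mixture is incubated at 55° C. Ethanol is added at 0, 1, 3 and 6 h, then supernatants go to HPLC.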

`O=c1c(-c2ccc(O)cc2)coc2cc(O)cc(O)c12` [genistein] was tested, and the “Decomposition efficiency of genistin family in defatted soybean” value (“Decomposition efficiency” for short) (pH2.6, heat treatment of enzyme: no, reaction time 1 h) was 17.7%, the “Decomposition efficiency” value (pH2.6, heat treatment of enzyme: no, reaction time 3 h) was 32.7% and the “Decomposition efficiency” value (pH2.6, heat treatment of enzyme: no, reaction time 6 h) was 34.6%. The “Decomposition efficiency” value (pH3.4, heat treatment of enzyme: no, reaction time 1 h) was 56.9%, the “Decomposition efficiency” value (pH3.4, heat treatment of enzyme: no, reaction time 3 h) was 62.5% and the “Decomposition efficiency” value (pH3.4, heat treatment of enzyme: no, reaction time 6 h) was 68.8%. The “Decomposition efficiency” value (pH3.4, heat treatment of enzyme: yes, reaction time 6 h) was 14.1%, the “Decomposition efficiency” value (pH4.8, heat treatment of enzyme: no, reaction time 0 h) was 14.5% and the “Decomposition efficiency” value (pH4.8, heat treatment of enzyme: no, reaction time 1 h) was 56.1%. The “Decomposition efficiency” value (pH4.8, heat treatment of enzyme: no, reaction time 3 h) was 61.9%, the “Decomposition efficiency” value (pH4.8, heat treatment of enzyme: no, reaction time 6 h) was 68.5% and the “Decomposition efficiency” value (pH4.8, heat treatment of enzyme: yes, reaction time 6 h) was 25.2%. For the same compound, the “Decomposition efficiency” value (pH5.4, heat treatment of enzyme: no, reaction time 0 h) was 14.5%, the “Decomposition efficiency” value (pH5.4, heat treatment of enzyme: no, reaction time 1 h) was 51.5% and the “Decomposition efficiency” value (pH5.4, heat treatment of enzyme: no, reaction time 3 h) was 55.4%. The “Decomposition efficiency” value (pH5.4, heat treatment of enzyme: no, reaction time 6 h) was 60.3%, the “Decomposition efficiency” value (pH5.4, heat treatment of enzyme: yes, reaction time 6 h) was 48.0% and the “Decomposition efficiency” value (pH6.6, heat treatment of enzyme: no, reaction time 1 h) was 49.3%. The “Decomposition efficiency” value (pH6.6, heat treatment of enzyme: no, reaction time 3 h) was 51.4%, the “Decomposition efficiency” value (pH6.6, heat treatment of enzyme: no, reaction time 6 h) was 53.7% and the “Decomposition efficiency” value (pH6.6, heat treatment of enzyme: yes, reaction time 6 h) was 46.4%. The “Decomposition efficiency” value (pH7.8, heat treatment of enzyme: no, reaction time 1 h) was 36.7%, the “Decomposition efficiency” value (pH7.8, heat treatment of enzyme: no, reaction time 3 h) was 42.5% and the “Decomposition efficiency” value (pH7.8, heat treatment of enzyme: no, reaction time 6 h) was 45.7%. The “Decomposition efficiency” value (pH7.8, heat treatment of enzyme: yes, reaction time 6 h) was 22.0%.
